From article PMC10728895, “Stapled Phd Peptides Inhibit Doc Toxin Induced Growth Arrest in Salmonella” (ACS Chemical Biology, 2023)
Entries after “also recorded” stand apart in the source; their conditions may differ. Non-standard residues stand in square brackets, D forms with d. Residues, ends and D or L forms follow the SMILES beside them. Nle = CCCC[C@H](N)C(=O)O

Legend:
DocSTm toxin = details: DocSTm 5 μM, peptide 50 μM
How it was run: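 Thermal shift with 5 μM recombinant Doc toxin and 50 μM Phd peptides in 20 mM K2HPO4, 50 mM (NH4)2SO4, pH 8.0, SYPRO Orange 3×, ramped 25–95 °C. Tm from Boltzmann fit; ΔTm is peptide-bound minus free DocSTm Tm, triplicates.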

[1] = tested on: DocSTm (phosphorylation of EF-TuSTm); test: Dot blot EF-Tu phosphorylation assay; assay type: biochemical, Salmonella Typhimurium; details: DocSTm 1 μM, EF-TuSTm 3 μM, peptide 10 μM to 5 nM (3-fold dilutions), 16 h RT, dot blot anti-phosphothreonine; compared at three times the DocSTm concentration; two independent experiments
Description: Samples were prepared in assay buffer [50 mM HEPES (pH 7.5), 25 mM (NH4)2SO4, 2 mM TCEP, 2 mM MgCl2, and 1 mM ATP] with a final concentration of recombinant Doc at 1 μM, recombinant EF-Tu at 3 μM, and varying concentrations of synthetic Phd peptides (final concentrations: 10 μM to 5 nM). EF-Tu (3 μM) in assay buffer was used as a negative control (no Doc and Phd peptide), while EF-Tu (3 μM) with Doc (1 μM) in assay buffer was used as a positive control (no Doc inhibitor). The final sample volume was 10 μL. Samples were incubated for 16 h at RT and subsequently spotted on a nitrocellulose membrane. Phosphorylated EF-Tu was detected by immunodecoration using a rabbit monoclonal antiphosphothreonine antibody (Abcam, ab218195) at 1:2000 dilution (1 h at 4 °C), followed by incubation with a goat antirabbit IgG (H + L) HRP conjugate antibody (Advansta) at 1:10,000 dilution (1 h at RT). Chemiluminescence was developed using the HRP Luminata Kit (Merck, WBLUR0100) and captured with an ImageQuant LAS4000 Western blot imaging system (GE HealthCare). Each peptide was tested in two independent experiments.

[2] = tested on: S. typhimurium (14028s) Δphd-doc::Km strain expressing DocSTm (pBAD33::doc); test: Growth rescue experiments in DocSTm-expressing S. typhimurium; assay type: cell-based; details: 10 μM synthetic peptide, 24 h, 37 °C, start OD600 0.1, M9 minimal medium with 0.5% arabinose; three independent experiments
Description: S. typhimurium (14028s) Δphd-doc::Km strains carrying pCA24N (empty vector or encoding for the Phd^52–73 variant) and pBAD33::doc plasmids were grown overnight in LB medium containing 1% glucose and supplemented with 100 μg/mL carbenicillin and 34 μg/mL chloramphenicol antibiotics. Cultures were then diluted to an OD600 of approximately 0.1 into 200 μL of fresh M9 minimal medium supplemented with 0.5% arabinose, 100 μg/mL carbenicillin, 34 μg/mL chloramphenicol, and containing 2 or 10 μM of the indicated synthetic Phd^52–73 peptide. Untreated DocSTm-expressing S. typhimurium as well as S. typhimurium coexpressing Doc and Phd^52–73 peptides were included as controls in each experiment. After 2 h of incubation at RT, samples were transferred to a flat-bottom 96-well plate (Greiner), and OD600 was monitored every 15 min for 24 h at 37 °C using an Infinite M Plex plate reader (Tecan LifeScience) and orbital shaking with 1 mm amplitude. Peptides were tested in three independent experiments.

CCCC[C@H](NC(=O)[C@H](Cc1c[nH]c2ccccc12)NC(C)=O)C(=O)N[C@@H](CC(=O)O)C(=O)N[C@@H](CC(=O)O)C(=O)N[C@@H](CCC(=O)O)C(=O)N[C@@H](Cc1ccccc1)C(=O)N[C@@H](C)C(=O)N[C@@H](C)C(=O)N[C@H](C(=O)N[C@@H](CCCC)C(=O)N[C@@H](C)C(=O)N[C@H](C(=O)N[C@@H](Cc1c[nH]cn1)C(=O)NCC(=O)N[C@@H](CC(N)=O)C(=O)N[C@@H](CCC(=O)O)C(=O)N[C@@H](CC(C)C)C(=O)N[C@@H](CCCNC(=N)N)C(=O)N[C@@H](CCC(=O)O)C(=O)N[C@@H](CC(C)C)C(=O)N[C@@H](C)C(=O)N[C@@H](CC(=O)O)C(=O)N[C@@H](CCCCN)C(=O)O)C(C)C)[C@@H](C)CC [Peptide 1] (Ac-W[Nle]DDEFAAI[Nle]AVHGNELRELADK-OH)
ΔTm (thermal shift) of DocSTm in the presence of peptide (DocSTm toxin; SYPRO Orange 3×, 20 mM K2HPO4, 50 mM (NH4)2SO4, pH 8.0, average Tm with peptide minus average Tm of free DocSTm, mean ± SD): 28.8 ± 2.7 °C | Average Tm of DocSTm in the presence of peptide (DocSTm toxin; pH 8.0, average ± SD, replicates 3-48 (Table S3)): 71.0 ± 1.1 °C | Inhibition of EF-TuSTm phosphorylation by DocSTm (concentration needed for full inhibition) [1]: fully inhibited | Rescue from DocSTm-induced growth inhibition (OD600) [2]: consistent and full rescue; also recorded: growth rescue was also observed
